Read-outs that look alike come from different tables or passages of the source.
Experiments:
TACE = molecular target: T1, TACE (Homo sapiens, UniProt P78536); assay: TACE inhibition (fluorescent peptidyl substrate); type: biochemical
T1 construct: purchased Immunex

MMP9 = assay: In vivo MMP inhibition (implanted dialysis tubing containing MMP enzyme); set-up: species or system rat (Sprague-Dawley) or mouse (CD-1)
MMP-9 = MMP-9 (Homo sapiens, UniProt P14780); assay: biochemical
MMP-13 = MMP-13 (Homo sapiens, UniProt P45452); assay: MMP-13 inhibition (thiopeptide/DTNB or fluorescent peptide substrate); type: biochemical
MMP-1 = molecular target: T2, MMP-1 (Homo sapiens, UniProt P03956); assay: MMP-1 inhibition (thiopeptide/DTNB or fluorescent peptide substrate); type: biochemical
T2 sequence (P03956 100-469): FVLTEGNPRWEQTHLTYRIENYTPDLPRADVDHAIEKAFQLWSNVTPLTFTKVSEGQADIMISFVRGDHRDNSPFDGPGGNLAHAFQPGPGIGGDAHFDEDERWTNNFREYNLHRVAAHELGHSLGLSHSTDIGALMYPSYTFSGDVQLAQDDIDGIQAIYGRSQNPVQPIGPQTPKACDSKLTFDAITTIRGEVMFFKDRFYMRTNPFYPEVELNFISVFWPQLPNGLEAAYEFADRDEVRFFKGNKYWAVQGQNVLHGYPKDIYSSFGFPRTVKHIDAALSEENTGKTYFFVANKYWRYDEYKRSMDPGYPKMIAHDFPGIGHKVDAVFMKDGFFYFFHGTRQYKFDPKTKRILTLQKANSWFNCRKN

T1 sequence (P78536 215-824): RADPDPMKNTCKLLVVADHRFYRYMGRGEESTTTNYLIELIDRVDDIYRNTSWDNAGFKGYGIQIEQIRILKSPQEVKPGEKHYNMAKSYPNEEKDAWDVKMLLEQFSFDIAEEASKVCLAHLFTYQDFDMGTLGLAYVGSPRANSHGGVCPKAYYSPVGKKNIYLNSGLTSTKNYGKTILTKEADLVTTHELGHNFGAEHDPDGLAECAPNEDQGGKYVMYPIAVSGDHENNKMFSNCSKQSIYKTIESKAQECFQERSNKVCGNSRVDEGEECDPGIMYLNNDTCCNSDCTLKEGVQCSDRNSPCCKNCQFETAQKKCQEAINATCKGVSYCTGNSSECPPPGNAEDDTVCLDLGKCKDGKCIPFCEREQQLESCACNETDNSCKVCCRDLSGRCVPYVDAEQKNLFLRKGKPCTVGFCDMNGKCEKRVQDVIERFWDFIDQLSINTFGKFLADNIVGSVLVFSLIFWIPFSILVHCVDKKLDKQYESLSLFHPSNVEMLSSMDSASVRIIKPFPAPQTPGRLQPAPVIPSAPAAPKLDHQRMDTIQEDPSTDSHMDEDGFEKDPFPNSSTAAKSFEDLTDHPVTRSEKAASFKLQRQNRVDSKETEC
Chain of MMP-9 (P14780 94-707): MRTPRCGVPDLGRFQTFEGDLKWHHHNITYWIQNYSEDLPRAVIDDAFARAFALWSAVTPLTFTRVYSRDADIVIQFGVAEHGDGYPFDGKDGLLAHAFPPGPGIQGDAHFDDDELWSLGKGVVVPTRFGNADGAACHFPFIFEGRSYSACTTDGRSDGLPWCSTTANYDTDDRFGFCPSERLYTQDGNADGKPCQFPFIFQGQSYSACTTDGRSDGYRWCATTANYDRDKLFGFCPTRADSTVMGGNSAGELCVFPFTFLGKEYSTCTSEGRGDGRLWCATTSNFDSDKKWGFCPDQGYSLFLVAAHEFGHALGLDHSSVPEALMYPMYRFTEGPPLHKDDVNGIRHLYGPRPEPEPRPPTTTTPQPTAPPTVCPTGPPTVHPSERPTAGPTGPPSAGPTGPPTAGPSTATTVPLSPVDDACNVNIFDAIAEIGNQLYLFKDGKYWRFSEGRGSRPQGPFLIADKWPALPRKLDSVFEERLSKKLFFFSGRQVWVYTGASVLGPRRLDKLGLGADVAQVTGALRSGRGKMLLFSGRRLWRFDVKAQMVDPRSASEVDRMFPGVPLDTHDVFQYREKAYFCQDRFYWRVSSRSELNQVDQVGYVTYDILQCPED

IC50 (MMP-9)	IC50 (MMP-1)	Compound	in-vivo MMP % inhibition vs. MMP9 (MMP9; 100 mg/kg, ip)	other results
–	–	COc1ccc(S(=O)(=O)N(Cc2ccccc2)c2c(Cl)cccc2C(=O)NO)cc1 [Example 24, 2-[Benzyl-(4-methoxy-benzenesulfonyl)-amino]-3-chloro-N-hydroxy-benzamide]	–	IC50 (TACE; read-out: TACE IC50): 1000 nM
–	–	COc1ccc(S(=O)(=O)N(Cc2ccccc2)c2c(C)cc(Br)cc2C(=O)NO)cc1 [Example 25, 2-[Benzyl-(4-methoxy-benzenesulfonyl)-amino]-5-bromo-N-hydroxy-3-methyl-benzamide]	32%	–
–	–	COc1ccc(S(=O)(=O)N(Cc2ccccc2)c2c(OCc3ccccc3)cccc2C(=O)NO)cc1 [Example 34, 2-[Benzyl-(4-methoxy-benzenesulfonyl)-amino]-3-benzyloxy-N-hydroxy-benzamide]	31.6%	–
–	–	COc1ccc(S(=O)(=O)N(Cc2cccnc2)c2c(C)cc(Br)cc2C(=O)NO)cc1 [Example 91, 5-Bromo-N-hydroxy-2-[(4-methoxy-benzenesulfonyl)-pyridin-3-ylmethyl-amino]-3-methyl-benzamide]	–	in-vivo MMP % inhibition vs. MMP9 (MMP9; 100 mg/kg, po): 55%
–	–	CCCN(c1c(C)cc(C)cc1C(=O)NO)S(=O)(=O)c1ccc(OC)cc1 [Example 117, N-Hydroxy-2-[(4-methoxy-benzenesulfonyl)-propyl-amino]-3,5-dimethyl-benzamide]	28.3%	–
7 nM	55 nM	COc1ccc(S(=O)(=O)N(Cc2cccnc2)c2c(C(=O)NO)cc(C)cc2-c2cccs2)cc1 [Example 145, N-Hydroxy-2-[(4-methoxy-benzenesulfonyl)-pyridin-3-ylmethyl-amino]-5-methyl-3-thiophen-2-yl-benzamide]	–	IC50 (MMP-13; read-out: MMP-13 IC50): 3 nM; IC50 (TACE; read-out: TACE IC50): 158 nM
–	20 nM	CCCCCCCCN(c1c(CN2CCN(C)CC2)cccc1C(=O)NO)S(=O)(=O)c1ccc(OC)cc1 [Example 325, N-Hydroxy-2-[(4-methoxy-benzenesulfonyl)-octyl-amino] -3-(4-methyl-piperazin-1-ylmethyl)-benzamide]	–	–
6.8 nM	3240 nM	Cc1cccc(C(=O)NO)c1N(C)S(=O)(=O)c1ccc(Oc2ccncc2)cc1 [Example 417]	–	–

Compound	IC50 (MMP-9)	IC50 (MMP-1)	in-vivo MMP % inhibition vs. MMP9 (MMP9; 100 mg/kg, ip)	other results
COc1ccc(S(=O)(=O)N(Cc2cccnc2)c2c(OCc3cccnc3)cccc2C(=O)NO)cc1 [Example 61]	34 nM	–	–	in-vivo MMP % inhibition vs. MMP9 (MMP9; 20 mg/kg, po): 46%; in-vivo MMP % inhibition vs. MMP9 (MMP9; 50 mg/kg, po): 59%; IC50 (MMP-13): 33 nM; IC50 (TACE): 289 nM
